Laboratory results taken from paper PMC4981864, “Novel pH-Sensitive Cyclic Peptides” (Scientific Reports, 2016).

Tests used:
[1] = Dual quenching assay (acrylamide / 10-DN); type: physicochemical; conditions: 7 μM peptide, 2.1 mM POPC
Text: To establish localization of the peptides within a lipid bilayer of membrane, dual quenching assay[28] was employed (Fig. 3 and Table S3). Effective quenching of fluorescence by acrylamide would occur only for tryptophan residues exposed to polar parts of the outer or inner leaflets of the bilayer. At the same time, tryptophan residues located in the middle of a membrane would be effectively quenched by 10-DN. The result of the dual quenching assay allows establishing if tryptophan residues were located in the middle of a membrane or close to the polar headgroups of the bilayer. […] Therefore, we also performed Förster resonance energy transfer (FRET) assay[29] (Fig. 4). First, symmetrically-labelled by NBD dye, POPC liposomes were prepared. Then, membrane-impermeable dithionite was used to chemically modify exposed NBD, which led to the quenching of NBD fluorescence. Thus, NBD dyes located at the outer leaflet of the bilayer were deactivated and excess of dithionite was removed by gel filtration. As a result, asymmetrically-labelled liposomes with active NBD at the inner leaflet were obtained. FRET was monitored from tryptophan residues of the peptides to NBD. Energy transfer might occur only when both fluorophores are in proximity to each other (within 5–15 Å). Thus, when tryptophan residues located at the outer leaflet of the bilayer no significant energy transfer to NBD at the inner leaflet would occur (the distance is about 50–60 Å). […] All other peptides were located at the outer leaflet of the bilayer at pH 8. Drop of pH promoted partitioning of all cyclic peptides into bilayer, which highest FRET for the c[E4W5C] at pH 3.
POPC liposomes without and with 10% of the lipids replaced by 10-doxylnonadecane (10-DN) (Avanti Polar Lipids) were prepared in 10 mM citrate-phosphate buffer pH 8.0. Peptides and POPC liposomes were mixed to generate final concentrations of 7 μM peptide and 2.1 mM POPC without and with 10-DN. […] Quencher, acrylamide (Sigma-Aldrich), was added to the samples of POPC liposomes containing no 10-DN, to have final concentration of 235 mM acrylamide. Concentration of peptides in all samples was kept constant. To observe quenching of tryptophan fluorescence by 10-DN or acrylamide, the tryptophan fluorescence was recorded as described above. The appropriate POPC blanks were measured and subtracted from the measured spectra before analysis. The percentage of quenching was calculated.

4T1 mammary tumors = assay: Ex vivo fluorescence imaging of tumor and organs after IV Alexa546-peptides; type: in vivo; conditions: 24 hours after IV, three mice
Procedure: The murine 4T1 xenograft model, which closely mimics stage IV of human breast cancer, was used in our study. Small 4T1 tumor (tumor volume <150 mm^3) generates a significant level of lactate and serves as a good model of an aggressive, acidic tumor[35]. All peptides were covalently conjugated with Alexa546-malemide. […] The mean fluorescence of tumor, muscle, kidney, liver and lungs were recorded and analyzed (Fig. 6).
All animal studies were conducted according to the animal protocol AN04-12-011 approved by the Institutional Animal Care and Use Committee at the University of Rhode Island, in compliance with the principles and procedures outlined by NIH for the Care and Use of Animals. 4T1 breast tumors were established by subcutaneous injection of 4T1 cells (8 × 10^5 cells/0.1 mL/flank) in the right flank of adult female BALB/c mice (about 19–22 g weight) obtained from Harlan Laboratories. When tumors reached about 6 mm in diameter single tail vein injections of 100 μl of 40 μM Alexa546-peptides were performed. […] Mean fluorescence intensity of tumor and organs was calculated using Kodak software.

For `O=C(O)CC[C@@H]1NC(=O)[C@H](CS)NC(=O)[C@H](Cc2c[nH]c3ccccc23)NC(=O)[C@H](Cc2c[nH]c3ccccc23)NC(=O)[C@H](Cc2c[nH]c3ccccc23)NC(=O)[C@H](Cc2c[nH]c3ccccc23)NC(=O)[C@H](Cc2c[nH]c3ccccc23)NC(=O)[C@H](CCC(=O)O)NC(=O)[C@H](CCC(=O)O)NC(=O)[C@H](CCC(=O)O)NC1=O` [c[E4W5C]], the “percentage of fluorescence quenching, Pep-PC+AC pH3” value ([1]; 235 mM acrylamide, pH 3) was 54%, the “percentage of fluorescence quenching, Pep-PC+AC pH8” value ([1]; 235 mM acrylamide, pH 8) was 61% and the “percentage of fluorescence quenching, Pep-PC+10-DN pH3” value ([1]; 10% of lipids replaced by 10-DN, pH 3) was 52%. The “percentage of fluorescence quenching, Pep-PC+10-DN pH8” value ([1]; 10% of lipids replaced by 10-DN, pH 8) was 49% and the Tumor/Muscle ratio (4T1 mammary tumors) was 5.6.
